Assay results reported in US8871227B2, “Process and formulation containing epothilones and analogs thereof” (Bristol-Myers Squibb Company, priority 2003, dated 2014).

How the values were obtained:
Assay type in all cases: physicochemical
[1] = Stability of aqueous solution: time for 5% drug loss (t95); conditions: 25°
Experimental: The compounds represented by formulae I and II present challenges from the viewpoint of pharmaceutical compounding for administration to patients for a number of reasons. […] Of particular concern with the present invention, compounds of formulae I and II can degrade when exposed to low pH, e.g., certain compounds of formula I presumably are susceptible to acids catalyzed hydrolysis. For example, the time for 5% drug loss (t95) at 25° for an aqueous solution of compound II is approximately 2 h at pH 7, but less than 0.2 h at pH 2.5.

[2] = pH of maximum stability
Description: The term, “pH of maximum stability,” or “maximum stability pH” means the pH at which a compound (or mixture of compounds) is least likely to degrade, or at which the compound (or mixtures of compounds) will degrade most slowly. Each compound or mixture of compounds will have a pH of maximum stability. However, the pH of maximum stability also may encompass a range of pH's. […] In this case, the pH of maximum stability is 7.1±1.
For example, in the embodiment involving use of the epothilone analog of formula II, the pH of maximum stability is about 7.0. A preferred dose of this epothilone analog when diluted in the infusion fluid is approximately in the range of about 0.05 to about 1.0 mg/mL, more preferably in the range of about 0.1 to about 0.8 mg/mL, and most preferably in the range of about 0.2 to about 0.6 mg/mL. The inventors herein have determined that for this epothilone analog and preferred dose, an advantageous buffer is sodium lactate, and a preferred concentration of this buffer in the formulation for administration is in the range of about 3 to about 30 mg/mL, more preferably in the range of about 10 to about 20 mg/mL, even more preferably at a concentration of about 15 mg/mL. […]

[3] = Infusion stability: loss of potency over six hour hold time after dilution in infusion fluid; conditions: for loss of potency (degradation of active compound) / loss of potency (degradation in active compound): 0.2 mg/mL; for loss of potency (degradation of active compound): with buffer and base; for loss of potency (degradation in active compound): without buffer and base
Experimental: To illustrate the surprising advantages of the invention, a formulation including the compound of formula II was diluted in a 0.9% Sodium Chloride Injection infusion fluid to a concentration of 0.2 mg/mL, without buffer and base. […] As a further illustration, a formulation including the compound of formula II was diluted in a 5% dextrose injection fluid to a concentration of 0.2 mg/mL, without buffer and base.

[4] = Degradation during dissolution and lyophilization; conditions: tertiary butanol/water 1:1, lyophilized at −30° C. about 100 hours, dried at 25° C. about 35 hours, light protected
Experimental: [1S-[1R*,3R*(E),7R*,10S*,11R*,12R*,16S*]]-7,11-Dihydroxy-8,8,10,12,16-pentamethyl-3-[1-methyl-2-(2-methyl-4-thiazolyl)ethenyl]-4-aza-17-oxabicyclo[14.0]heptadecane-5,9-dione, 4.04 g, was wetted/partially dissolved with 500 mL of a 4:1 mixture of tertiary butanol and Water for Injection USP which had been pre-cooled to 5° C. Once the drug powder had become completely wetted, dissolution was completed by the addition of […] Water for Injection, thereby making the final solution a 1:1 mixture. The dissolution was carried out under protection from light.
The solution formed above was promptly lyophilized in a Virtis GENESIS lyophilizer at −30° C. under light protected conditions over a period of about 100 hours. The resultant lyophilized product (lyophile) was then further dried at 25° C. under high vacuum for about 35 hours. […] The lyophile was packaged under sterile conditions into 15 mL vials, each containing 20 mg of drug and standard excess to allow for vial/needle/syringe loss.

time for 5% drug loss (t95) ([1]; pH 2.5): less than 0.2 h
time for 5% drug loss (t95) ([1]; pH 7): approximately 2 h
pH of maximum stability [2]: about 7.0
loss of potency (degradation of active compound) ([3]; 0.9% Sodium Chloride Injection): about 3.6%
loss of potency (degradation in active compound) ([3]; 0.9% Sodium Chloride Injection): about 6%
enhancement in stability ([3]; 0.9% Sodium Chloride Injection, with vs without buffer and base): approximately 40%
loss of potency (degradation of active compound) ([3]; 5% dextrose injection fluid): about 4%
loss of potency (degradation in active compound) ([3]; 5% dextrose injection fluid): about 13%
enhancement of stability ([3]; 5% dextrose injection fluid, with vs without buffer and base): greater than 65%
degradation of the drug during dissolution, lyophilization and drying [4]: No detectable degradation
Compound: C/C(=C\c1csc(C)n1)C1CC2O[C@]2(C)CCC[C@H](C)[C@H](O)[C@@H](C)C(=O)C(C)(C)[C@@H](O)CC(=O)N1 (relative stereo) [II, [1S-[1R*,3R*(E),7R*,10S*,11R*,12R*,16S*]]7,11-Dihydroxy-8,8,10,12,16-pentamethyl-3-[1-methyl-2-(2-methyl-4-thiazolyl)ethenyl]-4-aza-7oxabicyclo[14.1.0]heptadecane-5,9-dione]
